Source: patent publication US9643971B2 (GALLEON PHARMACEUTICALS, INC., priority 2013, dated 2017)

Key:
in vitro = settings: male, rat, microsomes
[1] = In vitro metabolic stability in human liver microsomes (HLM); settings: both, human, liver microsomes
[2] = Pharmacokinetic and oral bioavailability in the rat; assay type: in vivo, Sprague-Dawley rats; settings: Sprague-Dawley, plasma, oral gavage 10-30 mg/kg vs intravenous bolus 2-5 mg/kg
Description: Sprague-Dawley rats (200-300 g) were fed a standard laboratory rodent diet and housed in individual cages on a 12-hour light and 12-hour dark cycle with room temperature maintained at 22±3° C. and relative humidity at 50±20%. Rats were fasted overnight before dosing, with food returned after the 6 hour blood samples were obtained. Bedding was removed until after the 6 hour blood samples were obtained. Water was provided ad libitum throughout the study.
Dosing solution of test compound was prepared in desired oral formulation for oral administration via gavage needle at 10-30 mg/kg (10 mL/kg) to three or four rats. […]
Plasma samples (incurred study samples, calibration standards, quality controls) were normally prepared as follows. […] Calibration standards were typically prepared in the range of 2 ng/ml to 10 μg/mL for quantitation. […]
All pharmacokinetic parameters were determined based on a non-compartmental approach using WinNonlin software (Pharsight, Version 5.1). The terminal elimination half-life (t1/2) was calculated as ln2/λz using the slope (λz) from linear regression analysis of the terminal phase of the plasma concentration-time curve on a semi-log scale. […] The systemic plasma clearance (CLp) was calculated as intravenous dose divided by AUCinf. The volume of distribution at steady state (Vss) was determined as the product of CLp and MRT. […]

anesthetized rat = experiment: Anesthetized rat spirometry screening assay; assay type: in vivo
Summary of the method: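 Rats under urethane (1.5 g/kg i.v., after isoflurane induction) with femoral and tracheal cannulas; compounds given as i.v. bolus at 0.1 and 0.3 mg/kg with formulation-matched vehicle. RR, VT and minute volume from pneumotachometer airflow, in 30 s bins over 6 min post-dose; arterial blood gases taken pre- and 6 min post-dose.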

half-life at 5 μM (in vitro): 4.55 h
melting point: 229 to 232 °C
half-life at 5 μM [1]: 6.85 h
bioavailability [2]: 38%
effect on pulse rate (anesthetized rat; anesthetized rat, i.v. bolus): negligible effects
SMILES: CCCNc1nc(NC)nc2c(NCCC)nc(NC)nc12.Cl [Compound 4a, N^2,N^6-Dimethyl-N^4,N^8-di-n-propyl-pyrimido[5,4-d]pyrimidine-2,4,6,8-tetraamine hydrochloride]
AUC MV Inc (2 min) (ratio vs. std*) (anesthetized rat; 2 minute AUC of minute volume increase vs. comparator N-[2,6-di-(n-propylamino)-[1,3]pyrimidin-4-yl]-N,O-dimethyl-hydroxylamine): 1.28 ratio vs. std
duration of increase in minute ventilation (anesthetized rat; anesthetized rat, i.v. bolus): approximately 2 minutes
effect on blood pressure (anesthetized rat; anesthetized rat, i.v. bolus): negligible effects
effect on minute ventilation above baseline values (anesthetized rat; anesthetized rat, i.v. bolus): increase
effect on respiratory rate (anesthetized rat; anesthetized rat, i.v. bolus): stimulatory effects on respiratory rate primarily
dose dependence of effect on minute volume (anesthetized rat; based on a two-minute average): dose-dependent effect
effect compared to a reference compound as measured by area-under-curve (anesthetized rat; minute volume, two-minute average): greater effect
